Measured values published in publication PMC4230446 (Biochemistry, 2009).

Molecular target: T1, pyruvate formate-lyase activating enzyme (PFL-AE) (Escherichia coli, UniProt P0A9N4)
T1 sequence (P0A9N4 2-246): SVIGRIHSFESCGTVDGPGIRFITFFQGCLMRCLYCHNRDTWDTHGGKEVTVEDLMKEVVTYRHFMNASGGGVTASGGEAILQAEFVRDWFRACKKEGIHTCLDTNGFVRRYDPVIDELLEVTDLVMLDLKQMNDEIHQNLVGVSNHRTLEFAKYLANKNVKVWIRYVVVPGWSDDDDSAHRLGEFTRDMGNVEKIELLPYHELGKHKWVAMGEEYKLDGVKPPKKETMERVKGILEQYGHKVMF
Assay: […] Mössbauer spectroscopy
Format: binding
Conditions: 0.64 mM enzyme, [4Fe-4S]2+ state; 4.2 K, 50 mT; unique Fe site of cluster

Row | SMILES | fraction of LOC cluster at 6.4 mM
1 | Nc1ncnc2c1ncn2[C@@H]1O[C@H](COP(=O)(O)OP(=O)(O)O)[C@@H](O)[C@H]1O [ADP] | 50 % of total Fe
2 | Nc1ncnc2c1ncn2[C@@H]1O[C@H](COP(=O)(O)O)[C@@H](O)[C@H]1O [AMP] | 69 % of total Fe
